# Measurements from publication PMC9747717, “A novel small molecule inhibitor of human Drp1” (Scientific Reports, 2022).
# Where “and” joins values, the source holds several entries; their conditions need not be identical. Identical values can stand only once.
# How the values were obtained:
# human Drp1 isoform 3 [1] = biological target: T1, human Drp1 isoform 3 (Homo sapiens, UniProt O00429); experiment: Drp1 GTPase activity, colorimetric malachite green assay; type: biochemical
# T1 construct: His tag; made in house; host or cells: E. coli Rosetta (DE3), pET21b vector
# T1 sequence (O00429 1-699 isoform O00429-4): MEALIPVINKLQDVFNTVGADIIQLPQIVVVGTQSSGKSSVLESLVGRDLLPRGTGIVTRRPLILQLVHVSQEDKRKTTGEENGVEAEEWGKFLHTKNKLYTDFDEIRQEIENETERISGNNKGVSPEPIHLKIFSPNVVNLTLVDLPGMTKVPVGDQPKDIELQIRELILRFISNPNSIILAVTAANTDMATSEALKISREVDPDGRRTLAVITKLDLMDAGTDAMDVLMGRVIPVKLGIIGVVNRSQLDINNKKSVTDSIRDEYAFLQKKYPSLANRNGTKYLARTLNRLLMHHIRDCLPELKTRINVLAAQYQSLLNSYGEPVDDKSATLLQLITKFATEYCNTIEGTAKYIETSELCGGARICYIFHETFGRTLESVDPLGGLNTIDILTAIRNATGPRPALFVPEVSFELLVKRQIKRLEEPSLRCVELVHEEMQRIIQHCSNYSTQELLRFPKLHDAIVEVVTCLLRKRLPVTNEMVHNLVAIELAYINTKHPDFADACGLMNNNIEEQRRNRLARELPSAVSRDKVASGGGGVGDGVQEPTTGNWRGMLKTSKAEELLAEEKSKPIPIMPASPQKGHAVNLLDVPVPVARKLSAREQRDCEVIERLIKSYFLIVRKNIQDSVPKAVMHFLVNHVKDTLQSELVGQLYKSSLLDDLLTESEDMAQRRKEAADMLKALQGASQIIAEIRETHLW
# Procedure: The GTPase activity of Drp1, which is required for the latter to mediate mitochondrial fission, was examined using the colorimetric GTPase assay kit (Innova Biosciences, Cambridge, UK) according to the manufacturer’s instructions. Compounds were diluted in DMSO (all with a final concentration of 0.1% DMSO). Recombinant human Drp1 protein isoform-3 (final concentration 0.25 ng/µL) was diluted in assay buffer containing 50 mM Tris HCl (pH 7.5) and 2.5 mM MgCl2, followed by incubation with compounds for 15 min at 37 °C in a 96 well plate. 0.5 mM GTP, diluted in assay buffer, was then added into the mixture followed by incubation at 37 °C for 30 min.
# Upon binding to Drp1, GTP is hydrolysed into GDP and free phosphate (Pi)[24]. Therefore, the degree of GTPase inhibition was assessed by measuring the concentration of Pi released into the assay buffer, which is detected by a malachite green-based dye. The intensity of Pi-dye complex was assessed by measuring the light absorbance at 635 nm wavelength using a microplate reader (BenchMark Plus, MS, USA). Absorbance of each experimental group was normalised to the vehicle control (DMSO).
# [2] = tested on: Human foreskin fibroblasts (HFF-1); experiment: Hydrogen peroxide-induced oxidative stress, cell death; type: cell-based; conditions: 50 µM compound, 3 mM hydrogen peroxide, compared to DMSO control
# Procedure: Human foreskin fibroblasts (HFF-1, ATCC, VA, USA) were treated with 3 mM hydrogen peroxide plus vehicle control (0.1% DMSO), Mdivi-1 (50 µM) or individual compound at 50 µM. After 2.5–3 h of incubation at 37 °C in a humidified 5% CO2 incubator, cells were stained with 1 μg/mL propidium iodide and 3 μg/mL Hoechst 33258 to determine the percentage of dead cells. Images were captured at 20 × objective with an inverted microscope (Olympus IX71). The number of dead cells (propodium iodide positive) was counted and expressed as a percentage over total number of cells (Hoechst 33258 positive). At least 100 cells were counted per group for each independent experiment.
# human Drp1 isoform 3 [3] = biological target: T1, human Drp1 isoform 3; experiment: Surface plasmon resonance (SPR) binding; conditions: human Drp1 isoform 3, 25 °C, 2% DMSO
# Procedure: The recombinant human Drp1 protein (His-tagged human Drp1 isoform 3, kindly provided by Professor Michael Ryan, Monash University, Australia) was generated as described previously. Briefly, cDNA for human Drp1 (isoform 3) was cloned into pET21b vector and transformed in Rosetta (DE3) competent cells (Novagen, MA, Merck Millipore). Transformed cells were propagated in Luria–Bertani broth and protein expression was initiated by the addition of 0.5 mM isopropyl β-D-1-thiogalactopyranoside. […]
# All SPR experiments were performed on a Biacore T200 instrument (GE Healthcare Life Sciences, Uppsala, Sweden) at 25 °C in the presence of HEPES buffered saline containing 20 mM phosphate (pH 7.5), 137 mM NaCl, 2.7 mM KCl and 0.05% Tween-20 (HBS + P). […] Sensor surface was activated with 1:1 mixture of 0.4 M EDC and 0.1 M NHS for 7 min, followed by incremental injections of the protein to reach ~ 8000 RU (flow rate 10 μL/minute) for a calculated maximum analyte binding capacity (Rmax) of 30–50 RU. […]
# Compounds were dissolved in 100% dimethyl sulfoxide (DMSO) and then added to HBS + P at a final DMSO concentration of 2%. […] SPR results were analysed using the Biacore T200 Evaluation Software v.1.
# [4] = tested on: Human foreskin fibroblasts; experiment: Mitochondrial morphology analysis in human fibroblasts; type: cell-based
# Procedure: Human foreskin fibroblasts and Drp1 wildtype and KO MEF (kindly provided by Professor Hiromi Sesaki, Johns Hopkins University, USA)[28],[29] were transduced with pAS2.EYFP.puro lentiviruses (RNAiCore, Academia Sinica, Taiwan) carrying the mitochondrial-targeted EGFP sequence as described in Kalkhoran et al.[30]. Cells were then treated with DRP1i27 (5, 10 or 50 µM) or 0.1% DMSO vehicle control for 24 h.
# Mitochondrial morphology in HL-1 cells were visualised by immunostaining of mitochondrial Hsp60 antibody (Abcam, MA, USA). Images were acquired using Olympus BX60 fluorescence microscope at 600 × magnification and analysed using Fiji imaging software (ImageJ v1.53c). Cells were categorised into predominantly (> 50%) having fused or fragmented mitochondria. At least 100 cells were analysed for each treatment group.
smiles,measurement,setting,value
Cc1nc[nH]c1CN1C[C@@H]2CC[C@H](C1)N(Cc1ccc(-c3cc[nH]n3)o1)C2 [DRP1i27],inhibition of GTPase activity of human Drp1,human Drp1 isoform 3 [1]; 5 µM,statistically significant reduction
same,inhibition of the conversion of GTP to GDP,human Drp1 isoform 3 [1]; 5–50 µM,trend of inhibition
same,cell death induced by hydrogen peroxide,[2],significant reduction
same,Kd,human Drp1 isoform 3 [3],286 µM and 287 µM
same,percentage of cells with elongated mitochondria,"[4]; basal condition, compared to DMSO control",significant increase
same,cellular networks of mitochondria,"[4]; human fibroblasts, 5, 10 or 50 µM, 24 h",increase cellular networks of mitochondria
